Reference: PubChem BioAssay AID2060492 (Molecular Pharmacology Branch, DTP, NCI, 2025)

System: 695427-040-R-J1-PDC complex spheroids, viability percent T/C
Assay: Anticancer human tumor 695427-040-R-J1-PDC patient-derived colon adenocarcinoma cell line growth inhibition [GQUAD]
Details: for IC50: curve of first compound; for viability, T/C: stronger effect = lower value
Procedure, shortened: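 Tumor cells were grown as complex spheroids with HUVEC endothelial cells and mesenchymal stem cells as stroma. G-quadruplex stabilizers were combined with targeted agents over half-log dilutions from near the clinical Cmax, or from 10 microM.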

[1] = second compound 0.0316 µM, first compound 0.000999 µM
[2] = second compound 0.0316 µM, first compound 0.00316 µM
[3] = second compound 0.0316 µM, first compound 0.00999 µM
[4] = second compound 0.0316 µM, first compound 0.0316 µM
[5] = second compound 0.0316 µM, first compound 0.0999 µM
[6] = second compound 0.0316 µM, first compound 0.316 µM
[7] = second compound 0.1 µM, first compound 0.000999 µM
[8] = second compound 0.1 µM, first compound 0.00316 µM
[9] = second compound 0.1 µM, first compound 0.00999 µM
[10] = second compound 0.1 µM, first compound 0.0316 µM
[11] = second compound 0.1 µM, first compound 0.0999 µM
[12] = second compound 0.1 µM, first compound 0.316 µM
[13] = second compound 0.316 µM, first compound 0.000999 µM
[14] = second compound 0.316 µM, first compound 0.00316 µM
[15] = second compound 0.316 µM, first compound 0.00999 µM
[16] = second compound 0.316 µM, first compound 0.0316 µM
[17] = second compound 0.316 µM, first compound 0.0999 µM
[18] = second compound 0.316 µM, first compound 0.316 µM
[19] = second compound 1 µM, first compound 0.000999 µM
[20] = second compound 1 µM, first compound 0.00316 µM
[21] = second compound 1 µM, first compound 0.00999 µM
[22] = second compound 1 µM, first compound 0.0316 µM
[23] = second compound 1 µM, first compound 0.0999 µM
[24] = second compound 1 µM, first compound 0.316 µM
[25] = second compound 3.16 µM, first compound 0.000999 µM
[26] = second compound 3.16 µM, first compound 0.00316 µM
[27] = second compound 3.16 µM, first compound 0.00999 µM
[28] = second compound 3.16 µM, first compound 0.0316 µM
[29] = second compound 3.16 µM, first compound 0.0999 µM
[30] = second compound 3.16 µM, first compound 0.316 µM
[31] = second compound 10 µM, first compound 0.000999 µM
[32] = second compound 10 µM, first compound 0.00316 µM
[33] = second compound 10 µM, first compound 0.00999 µM
[34] = second compound 10 µM, first compound 0.0316 µM
[35] = second compound 10 µM, first compound 0.0999 µM
[36] = second compound 10 µM, first compound 0.316 µM
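Also: spheroids exposed to compounds for seven days before readout.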

CCc1c2c(nc3ccc(O)cc13)-c1cc3c(c(=O)n1C2)COC(=O)[C@]3(O)CC + Cc1cnc(CNC(=O)c2c(=O)c3ccc(N4CCCN(C)CC4)nc3n3c2sc2ccccc23)cn1
IC50 (second compound 0.0316 µM): 0.0813 µM | IC50 (second compound 0.1 µM): 0.049 µM | IC50 (second compound 0.316 µM): 0.0273 µM | IC50 (second compound 1 µM): 0.0261 µM | IC50 (second compound 3.16 µM): 0.00302 µM | IC50 (second compound 10 µM): < 0.000999 µM | viability, T/C [1]: 82.6% | viability, T/C [2]: 75.7% | viability, T/C [3]: 81.1% | viability, T/C [4]: 57.9% | viability, T/C [5]: 50.1% | viability, T/C [6]: 34.5% | viability, T/C [7]: 91.4% | viability, T/C [8]: 68.6% | viability, T/C [9]: 73.2% | viability, T/C [10]: 47.5% | viability, T/C [11]: 47.5% | viability, T/C [12]: 33.8% | viability, T/C [13]: 85.3% | viability, T/C [14]: 57% | viability, T/C [15]: 63.6% | viability, T/C [16]: 49.8% | viability, T/C [17]: 43.2% | viability, T/C [18]: 31.1% | viability, T/C [19]: 66.1% | viability, T/C [20]: 63.6% | viability, T/C [21]: 53.1% | viability, T/C [22]: 47.7% | viability, T/C [23]: 40.4% | viability, T/C [24]: 19.1% | viability, T/C [25]: 55.1% | viability, T/C [26]: 47.3% | viability, T/C [27]: 44.8% | viability, T/C [28]: 38.9% | viability, T/C [29]: 31.2% | viability, T/C [30]: 7.33% | viability, T/C [31]: 39.7% | viability, T/C [32]: 33.7% | viability, T/C [33]: 40.2% | viability, T/C [34]: 37.7% | viability, T/C [35]: 9.89% | viability, T/C [36]: 0.52%

Cn1ncnc1[C@H]1c2n[nH]c(=O)c3cc(F)cc(c23)N[C@@H]1c1ccc(F)cc1 + Cc1cnc(CNC(=O)c2c(=O)c3ccc(N4CCCN(C)CC4)nc3n3c2sc2ccccc23)cn1
IC50 (second compound 0.0316 µM): > 0.316 µM | IC50 (second compound 0.1 µM): > 0.316 µM | IC50 (second compound 0.316 µM): > 0.316 µM | IC50 (second compound 1 µM): > 0.316 µM | IC50 (second compound 3.16 µM): > 0.316 µM | IC50 (second compound 10 µM): < 0.000999 µM | viability, T/C [1]: 98.9% | viability, T/C [2]: 84.2% | viability, T/C [3]: 96.4% | viability, T/C [4]: 66.4% | viability, T/C [5]: 86.2% | viability, T/C [6]: 71.7% | viability, T/C [7]: 93.5% | viability, T/C [8]: 101% | viability, T/C [9]: 87.5% | viability, T/C [10]: 62.9% | viability, T/C [11]: 91.8% | viability, T/C [12]: 60.6% | viability, T/C [13]: 65.7% | viability, T/C [14]: 83.5% | viability, T/C [15]: 88.1% | viability, T/C [16]: 71.5% | viability, T/C [17]: 66% | viability, T/C [18]: 66% | viability, T/C [19]: 53.7% | viability, T/C [20]: 53.9% | viability, T/C [21]: 60.7% | viability, T/C [22]: 55.9% | viability, T/C [23]: 82.5% | viability, T/C [24]: 56.5% | viability, T/C [25]: 51.6% | viability, T/C [26]: 48.7% | viability, T/C [27]: 53% | viability, T/C [28]: 62.1% | viability, T/C [29]: 63.3% | viability, T/C [30]: 46.5% | viability, T/C [31]: 37.8% | viability, T/C [32]: 44.7% | viability, T/C [33]: 58.2% | viability, T/C [34]: 47.7% | viability, T/C [35]: 58.5% | viability, T/C [36]: 40.1%

O=C(c1cc(Cc2n[nH]c(=O)c3ccccc23)ccc1F)N1CCN(C(=O)C2CC2)CC1 + Cc1cnc(CNC(=O)c2c(=O)c3ccc(N4CCCN(C)CC4)nc3n3c2sc2ccccc23)cn1
IC50 (second compound 0.0316 µM): > 10 µM | IC50 (second compound 0.1 µM): > 10 µM | IC50 (second compound 0.316 µM): > 10 µM | IC50 (second compound 1 µM): > 10 µM | IC50 (second compound 3.16 µM): > 10 µM | IC50 (second compound 10 µM): < 0.0316 µM | viability, T/C [4]: 94.2% | viability, T/C (second compound 0.0316 µM, first compound 0.1 µM): 101% | viability, T/C [6]: 93.5% | viability, T/C (second compound 0.0316 µM, first compound 1 µM): 77.7% | viability, T/C (second compound 0.0316 µM, first compound 3.16 µM): 83.5% | viability, T/C (second compound 0.0316 µM, first compound 10 µM): 90.9% | viability, T/C [10]: 102% | viability, T/C (second compound 0.1 µM, first compound 0.1 µM): 79% | viability, T/C [12]: 95.5% | viability, T/C (second compound 0.1 µM, first compound 1 µM): 57% | viability, T/C (second compound 0.1 µM, first compound 3.16 µM): 92.7% | viability, T/C (second compound 0.1 µM, first compound 10 µM): 87.3% | viability, T/C [16]: 95.4% | viability, T/C (second compound 0.316 µM, first compound 0.1 µM): 63% | viability, T/C [18]: 91.9% | viability, T/C (second compound 0.316 µM, first compound 1 µM): 74.7% | viability, T/C (second compound 0.316 µM, first compound 3.16 µM): 86.8% | viability, T/C (second compound 0.316 µM, first compound 10 µM): 80.8% | viability, T/C [22]: 60.3% | viability, T/C (second compound 1 µM, first compound 0.1 µM): 69.6% | viability, T/C [24]: 53.8% | viability, T/C (second compound 1 µM, first compound 1 µM): 57.4% | viability, T/C (second compound 1 µM, first compound 3.16 µM): 71% | viability, T/C (second compound 1 µM, first compound 10 µM): 66.2% | viability, T/C [28]: 52.9% | viability, T/C (second compound 3.16 µM, first compound 0.1 µM): 53.3% | viability, T/C [30]: 53.5% | viability, T/C (second compound 3.16 µM, first compound 1 µM): 46.6% | viability, T/C (second compound 3.16 µM, first compound 3.16 µM): 62.6% | viability, T/C (second compound 3.16 µM, first compound 10 µM): 51.1% | viability, T/C [34]: 32.1% | viability, T/C (second compound 10 µM, first compound 0.1 µM): 53.5% | viability, T/C [36]: 49.9% | viability, T/C (second compound 10 µM, first compound 1 µM): 48% | viability, T/C (second compound 10 µM, first compound 3.16 µM): 48.1% | viability, T/C (second compound 10 µM, first compound 10 µM): 40.2%
